Legend:
AtCAT1 = biological target: T1, AtCAT1 (Arabidopsis thaliana, UniProt Q84MA5); assay: LC-MS/MS of PPT accumulated in overexpressing M. polymorpha versus Tak-1; settings: whole plants, 100 µM PPT
T1 sequence (Q84MA5 2-594): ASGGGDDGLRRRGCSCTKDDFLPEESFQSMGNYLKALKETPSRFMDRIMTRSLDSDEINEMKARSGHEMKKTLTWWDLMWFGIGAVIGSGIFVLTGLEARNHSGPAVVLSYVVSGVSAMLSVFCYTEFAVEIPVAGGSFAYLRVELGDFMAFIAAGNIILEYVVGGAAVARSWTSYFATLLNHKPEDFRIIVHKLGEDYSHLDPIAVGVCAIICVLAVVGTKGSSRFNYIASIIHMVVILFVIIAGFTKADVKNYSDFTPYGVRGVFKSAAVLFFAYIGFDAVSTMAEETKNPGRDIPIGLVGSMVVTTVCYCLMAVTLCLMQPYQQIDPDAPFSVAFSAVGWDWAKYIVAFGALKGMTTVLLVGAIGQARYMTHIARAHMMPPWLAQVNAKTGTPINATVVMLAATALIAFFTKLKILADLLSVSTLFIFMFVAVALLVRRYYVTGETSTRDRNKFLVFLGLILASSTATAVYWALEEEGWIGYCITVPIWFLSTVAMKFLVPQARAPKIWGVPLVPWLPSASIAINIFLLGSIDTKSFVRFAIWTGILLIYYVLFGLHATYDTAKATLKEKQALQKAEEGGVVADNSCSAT

AtCAT5 = biological target: T2, AtCAT5 (Arabidopsis thaliana, UniProt O64759); assay: as above; settings: whole plants, 100 µM PPT (time course at 1 mM PPT up to 48 h)
T2 sequence (O64759 1-569): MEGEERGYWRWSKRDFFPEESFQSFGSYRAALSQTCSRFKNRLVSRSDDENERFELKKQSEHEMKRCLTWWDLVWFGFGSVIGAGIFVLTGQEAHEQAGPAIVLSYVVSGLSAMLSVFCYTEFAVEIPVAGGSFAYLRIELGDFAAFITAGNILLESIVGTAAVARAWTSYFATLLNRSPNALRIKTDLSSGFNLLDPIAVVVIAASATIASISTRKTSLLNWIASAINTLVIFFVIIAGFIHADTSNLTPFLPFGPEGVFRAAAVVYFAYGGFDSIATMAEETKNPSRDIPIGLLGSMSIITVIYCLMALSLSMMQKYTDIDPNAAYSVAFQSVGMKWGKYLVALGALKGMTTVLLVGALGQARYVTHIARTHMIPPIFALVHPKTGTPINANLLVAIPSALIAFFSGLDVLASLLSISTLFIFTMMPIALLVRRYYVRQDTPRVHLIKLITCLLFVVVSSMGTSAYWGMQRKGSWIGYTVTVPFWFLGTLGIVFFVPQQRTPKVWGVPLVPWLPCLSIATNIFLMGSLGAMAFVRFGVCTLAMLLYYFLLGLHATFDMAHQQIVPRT

With `CP(=O)(O)CC[C@H](N)C(=O)O` [PPT, L-phosphinothricin] the PPT accumulation (AtCAT1) was “Increased PPT contents in both AtCAT1ox and AtCAT5ox lines confirmed the successful mediation” and the PPT accumulation (AtCAT5) was “Increased PPT contents in both AtCAT1ox and AtCAT5ox lines confirmed the successful mediation”.

Source: article PMC12775149 (Nature Communications, 2025)
